Legend:
[1] = target: T1, Aβ42 and Aβ40-Q22 (Homo sapiens, UniProt P05067, E693Q); test: Thioflavin T binding assay of Aβ aggregation; conditions: 100 or 300 μM MTZ; aggregation up to 3 days
T1 construct: purchased James I. Elliott at Yale University (custom chemical peptide synthesis)
Method: Binding of the different Aβ peptides to Thioflavin-T was monitored by fluorescence evaluation, as described (Fossati et al., 2010; Walsh et al., 1999). Briefly, after peptide aggregation at 50 μM concentration in culture media in the presence or absence of MTZ, 6 μl aliquots from each of the time-points were added to 184 μl of 50 mM Tris-HCl buffer, pH 8.5, and 10 μl of 0.1 mM Thioflavin-T (Sigma). Fluorescence was recorded for 300 s in a LS-50B luminescence spectrometer (Perkin Elmer, Waltham, Mass.) with excitation and emission wavelengths of 435 and 490 nm (slit width 10 nm), respectively, as described (Solito et al., 2009; Viana et al., 2009).

[2] = target: T1, Aβ42 and Aβ40-Q22; test: Native gel electrophoresis and Western blot of Aβ aggregation species; conditions: presence or absence of the CAI; 1 hour, 1 day, 3 days
Method: Electrophoretic analysis for assessment of peptide aggregation in the presence or absence of MTZ was performed under native conditions using 5-30% gradient polyacrylamide gels, in absence of SDS, using 25 mM Tris/glycine, pH 8.8, as running buffer, as previously described (Fossati et al., 2010). Aβ oligomerization patterns were visualized by subsequent WB analysis. Briefly, proteins were electrotransferred to nitrocellulose membranes ([…] pore size; Hybond-ECL, GE Healthcare Life Sciences, Piscataway, N.J.) at 400 mA for 2.5 h, using 10 mM 3-cyclohexylamino-1-propanesulfonic acid (CAPS; Sigma) buffer, pH 11.0, containing 10% (v/v) methanol. After blocking with 5% nonfat milk in TBS containing 0.1% Tween 20 (TBST), membranes were immunoreacted with a combination of mouse monoclonal anti-Aβ antibodies 4G8 (epitope: residues Aβ18-22) and 6E10 (epitope: residues Aβ3-8), both from Covance (Princeton, N.J.), at 1:3000 dilution each, followed by HRP-labeled anti-mouse IgG and ECL chemistry (Fossati et al., 2010).

[3] = test system: cerebral microvascular endothelial cells (D3); test: Aβ-induced mitochondrial Cytochrome C release; format: cell-based, human; conditions: Example 3
Method: Both EC and SH-SY5Y cells were plated on to glass chamber slides (Thermo Fisher Scientific), pre-coated with either collagen-I or poly-d-lysine (for ECs and SH-SY5Y cells respectively). After seeding, cells were allowed to attach for 1 day before treatment with the different peptides for 1-3 days, as above. Cells were washed with ice-cold PBS, fixed with 4% paraformaldehyde (10 min at room temperature) and blocked for 1 h with 20 mg/ml BSA in PBST (PBS containing 0.3% Triton X-100). Slides were further incubated with mouse anti-CytC monoclonal antibody (BD Biosciences; 1:200 dilution in PBST containing 5 mg/ml BSA; 2 h at room temperature) followed by Alexa Fluor® 488-conjugated anti-(mouse IgG) antibody (Invitrogen; 1:200 in PBST with 5 mg/ml BSA; 1 h at room temperature). Fluorescence signals were visualized in a Nikon Eclipse E 800 deconvolution microscope using NIS Elements software (Nikon Instruments) for image acquisition and processing, and AutoQuant (Media Cybernetics) for 3D deconvolution. The effect of methazolamide in preventing the Aβ-induced release of CytC from the mitochondria into the cytoplasm was evaluated in EC and SH-SY5Y cultures. […]

[4] = test system: SH-SY5Y cells; test: Cellular ROS (CellROX, DCFDA); format: cell-based, human; conditions: Aβ42 in the presence or absence of MTZ; 24 hours
Method: For the last 30 minutes, the cells were incubated in the experimental medium at 37° C. with 5 μM CellROX Deep Red (Life Technologies) and 1 μg/ml Hoechst Stain (Immunochemistry Technologies, Bloomington, Minn.), as described by the manufacturer, followed by washes. Fluorescence was measured using a FlexStation 3 Multi-Mode Microplate Reader (Molecular Devices, Sunnyvale, Calif.).
10.000 cells of either SH-SY5Y or D3 cells were plated on 96-wells plates. The day after, cells were treated with the peptides and/or the drugs for the established experimental times. CellROX reagent was then added, directly, to the growing media, at a final concentration of 5 μM. 10 μg/mL of Hoescht 333258 was also added to the medium containing the CellROX reagent, in order to dye cell nuclei. Cells were incubated with both CellROX and Hoescht 333258, at 37° C., for 30 min., just before the ending time-point of the treatment. After 30 min., the medium was removed and cells were washed once in PBS 1× at room temperature. […]
Cells were plated on 96-wells microplate fluorescence microtiter (ThermoFisher, Waltham, Mass., US), and treated with peptides and/or drugs on phenol red free medium, with no serum in the case of the SH-SY5Y cells and 1% serum on the D3. […] Fluorescence was measured using a FlexStation (Molecular devices, Sunnyvalem Calif., US).

[5] = Wright et al., 2008; cited from earlier work

Structure (SMILES)	Aβ fibrillization by Thioflavin T fluorescence [1]	Aβ aggregation species in native gels [2]	CytC localization (immunocytochemistry) ([3]; Aβ40-Q22 25 μM or Aβ40/42 WT 10 μM, 24 h)	release of CytC, cells with diffuse green staining as % of total cells ([3]; FIG. 23B)	levels of cellular ROS (CellROX) [4]	well tolerated daily dose in humans [5]
CC(=O)/N=c1/sc(S(N)(=O)=O)nn1C [MTZ, methazolamide]	no significant difference in fibrillization	did not differ	retained in the mitochondria	prevented	did not significantly change	
CC(=O)Nc1nnc(S(N)(=O)=O)s1 [ATZ, acetazolamide]						≤ 1000 mg

Reference: patent US10780094B2, “Use of carbonic anhydrase inhibitors for treatment of neurological and psychiatric disorders” (New York University, priority 2016, dated 2020)
